Measured values taken from patent publication US20070129367A1, “Pyridine derivatives as cb2 receptor modulators” (priority 2002, published 2007).
Read-outs that look alike come from different tables or passages of the source.

Target: T1, human cannabinoid CB2 receptor (Homo sapiens, UniProt P34972)
T1 construct: expressed in transfected cells; host or cells: Saccharomyces cerevisiae strain MMY23 (cassette integrated at the ura3 locus, GPD promoter)
Experiment: Cannabinoid CB2 receptor agonist activity in yeast (Saccharomyces cerevisiae) cells expressing the receptor, FDGlu fluorescence readout;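 as to Emax: percent of the maximal response of the reference agonist HU210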
Type: cell-based
Settings: for Emax: read-out: efficacy (Emax) at the cloned human cannabinoid CB2 receptor
Protocol: Determination of Cannabinoid CB2 Receptor Agonist Activity
The cannabinoid CB2 receptor agonist activity of the compounds of formula (I) was determined in accordance with the following experimental method.
Yeast (Saccharomyces cerevisiae) cells expressing the human cannabinoid CB2 receptor were generated by integration of an expression cassette into the ura3 chromosomal locus of yeast strain MMY23. This cassette consisted of DNA sequence encoding the human CB2 receptor flanked by the yeast GPD promoter to the 5′ end of CB2 and a yeast transcriptional terminator sequence to the 3′ end of CB2. MMY23 expresses a yeast/mammalian chimeric G-protein alpha subunit in which the C-terminal 5 amino acids of Gpa1 are replaced with the C-terminal 5 amino acids of human Gαi3 (as described in Brown et aL (2000), Yeast 16:11-22). Cells were grown at 30° C. in liquid Synthetic Complete (SC) yeast media (Guthrie and Fink (1991), Methods in Enzymology, Vol. 194) lacking uracil, tryptophan, adenine and leucine to late logarithmic phase (approximately 6 OD600/ml).
Agonists were prepared as 10 mM stocks in DMSO. […] Agonist solutions in DMSO (1% final assay volume) were transferred into black, clear bottom, microtitre plates from NUNC (96- or 384-well). […] This mixture (50 ul per well for 384-well plates, 200 ul per well for 96-well plates) was added to agonist in the assay plates (Multidrop 384, Labsystems). After incubation at 30° C. for 24 hours, fluorescence resulting from degradation of FDGlu to fluorescein due to exoglucanase, an endogenous yeast enzyme produced during agonist-stimulated cell growth, was determined using a Spectrofluor microtitre plate reader (Tecan; excitation wavelength: 485 nm; emission wavelength: 535 nm). Fluorescence was plotted against compound concentration and iteratively curve fitted using a four parameter fit to generate a concentration effect value. […] Equieffective molar ratio (EMR) values were calculated from the equation EMR=EC50 [compound X]/EC50 [HU210]
Where EC50 [compound X] is the EC50 of compound X and EC50 [HU210] is the EC50 of HU210.

[1] = agonist activity, yeast cells, 24 hours at 30° C., read-out: EC50 at the cloned human cannabinoid CB2 receptor

T1 sequence (P34972 whole entry): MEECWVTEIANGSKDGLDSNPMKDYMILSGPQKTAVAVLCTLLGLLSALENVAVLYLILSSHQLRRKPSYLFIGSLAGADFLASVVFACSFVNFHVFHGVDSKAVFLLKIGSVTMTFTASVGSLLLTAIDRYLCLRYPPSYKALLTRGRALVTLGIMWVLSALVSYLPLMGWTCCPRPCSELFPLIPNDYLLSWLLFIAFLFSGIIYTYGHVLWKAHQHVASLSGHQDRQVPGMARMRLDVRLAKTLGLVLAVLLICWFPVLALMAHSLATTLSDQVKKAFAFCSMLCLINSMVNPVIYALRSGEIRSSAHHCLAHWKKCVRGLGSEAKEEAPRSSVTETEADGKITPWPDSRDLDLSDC

Row | EC50 [1] | SMILES | EC50 | Emax
1 | 300 to 1000 nM | CC(C)c1cc(Nc2cccc(Cl)c2)ncc1C(=O)NCc1ccc(C(N)=O)cc1 [Example 8, N-(4-Carbamoyl-benzyl)-6-(3-chloro-phenylamino)-4-isopropyl-nicotinamide] | – | –
2 | – | O=C(NCc1ccnc(F)c1)c1cnc(Nc2cc(Cl)cc(Cl)c2)cc1C(F)(F)F [Example 54, N-(2-Fluoro-pyridin-4-ylmethyl)-6-(3,5-dichloro-phenylamino)-4-trifluoromethyl-nicotinamide] | < 300 nM | > 50%
3 | – | CC(C)c1cc(Nc2cccc(OC(F)(F)F)c2)ncc1C(=O)NCc1ccc(F)cc1 [Example 25, N-(4-Fluoro-benzyl)-4-isopropyl-6-(3-trifluoromethoxy-phenylamino)-nicotinamide] | 300 to 1000 nM | > 50%
4 | – | CC(C)c1cc(Nc2ccc(C#N)c(Cl)c2)ncc1C(=O)NCc1ccc(F)cc1 [Example 23, 6-(3-Chloro-4-cyano-phenylamino)-N-(4-fluoro-benzyl)-4-isopropyl-nicotinamide] | < 300 nM | > 50%
5 | – | CC(C)c1cc(Nc2cccc(F)c2)ncc1C(=O)NCc1ccc(F)cc1 [Example 17, N-(4-Fluoro-benzyl)-6-(3-fluoro-phenylamino)-4-isopropyl-nicotinamide] | < 300 nM | > 50%
6 | – | O=C(NCc1ccnc(F)c1)c1cnc(Nc2ccc(Cl)cc2Cl)cc1C(F)(F)F [Example 51, N-(2-Fluoro-pyridin-4-ylmethyl)-6-(2,4-dichloro-phenylamino)-4-trifluoromethyl-nicotinamide] | < 300 nM | > 50%
7 | – | O=C(NCc1ccc(F)cc1)c1cnc(Nc2ccc(Cl)c(Cl)c2)cc1C(F)(F)F [Example 55, N-(4-Fluoro-benzyl)-6-(3,4-dichloro-phenylamino)-4-trifluoroinethyl-nicotinainide] | < 300 nM | > 50%
8 | – | CC(C)c1cc(Nc2ccc(Cl)c(Cl)c2)ncc1C(=O)NCc1ccc(F)cc1 [Example 32, 6-(3,4-Dichloro-phenylamino)-N-(4-fluoro-benzyl)-4-isopropyl-nicotinamide] | 300 to 1000 nM | > 50%
9 | – | CC(C)c1cc(Nc2cccc(Cl)c2)ncc1C(=O)NCc1ccc(F)c(F)c1 [Example 7, 6-(3-Chloro-phenylamino)-N-(3,4-difluoro-benzyl)-4-isopropyl-nicotinamide] | 300 to 1000 nM | > 50%
10 | – | O=C(NCc1ccc(F)cc1)c1cnc(Nc2cccc(F)c2)cc1C(F)(F)F [Example 49, N-(4-Fluoro-benzyl)-6-(3-fluoro-phenylamino)-4-trifluoromethyl-nicotinamide] | < 300 nM | > 50%
11 | – | COc1cccc(Nc2cc(C(C)C)c(C(=O)NCc3ccc(F)cc3)cn2)c1 [Example 30] | 300 to 1000 nM | > 50%
12 | < 300 nM | Cc1cc(C#N)ccc1Nc1cc(C(C)C)c(C(=O)NCc2ccc(F)cc2)cn1 [Example 73, 6-(4-Cyano-2-methyl-phenylamino)-N-(4-fluoro-benzyl)-4-isopropyl-nicotinamide] | – | –
13 | – | Cc1c(Br)cccc1Nc1cc(C(C)C)c(C(=O)NCc2ccc(F)cc2)cn1 [Example 27, 6-(3-Bromo-2-methyl-phenylamino)-N-(4-fluoro-benzyl)-4-isopropyl-nicotinamide] | 300 to 1000 nM | > 50%
14 | – | O=C(NCc1ccccc1)c1cnc(Nc2cccc(Cl)c2)cc1C(F)(F)F [Example 2, 2-(3-Chlorophenylamino)-4-trifluoromethylpyridine-5-carboxylic acid benzylamide] | < 300 nM | > 50%
15 | – | CC(C)c1cc(Nc2ccc(Cl)cc2Br)ncc1C(=O)NCc1ccc(F)cc1 [Example 70, 6-(2-Bromo-4-chloro-phenylamino)-N-(4-fluoro-benzyl)-4-isopropyl-nicotinamide] | < 300 nM | > 50%
16 | – | CC(C)c1cc(Nc2cccc(Cl)c2F)ncc1C(=O)NCc1ccc(F)cc1 [Example 26, 6-(3-Chloro-2-fluoro-phenylamino)-N-(4-fluoro-benzyl)-4-isopropyl-nicotinamide] | 300 to 1000 nM | > 50%
17 | 300 to 1000 nM | CC(C)c1cc(Nc2ccc(Br)cc2F)ncc1C(=O)NCc1ccc(F)cc1 [Example 31, 6-(4-Bromo-2-fluoro-phenylamino)-N-(4-fluoro-benzyl)-4-isopropyl-nicotinamide] | – | –
18 | – | Cc1cccc(Nc2cc(C(C)C)c(C(=O)NCc3ccc(F)cc3)cn2)c1C#N [Example 16, 6-(2-Cyano-3-methyl-phenylamino)-N-(4-fluoro-benzyl)-4-isopropyl-nicotinamide] | 300 to 1000 nM | > 50%
19 | < 300 nM | CC(C)c1cc(Nc2ccc(F)c(Cl)c2)ncc1C(=O)NCc1ccc(F)cc1 [Example 15, 6-(3-Chloro-4-fluoro-phenylamino)-N-(4-fluoro-benzyl)-4-isopropyl-nicotinamide] | – | –
20 | – | CC(C)c1cc(Nc2ccc(Br)c(Cl)c2)ncc1C(=O)NCc1ccc(F)cc1 [Example 75, 6-(4-Bromo-3-chloro-phenylamino)-N-(4-fluoro-benzyl)-4-isopropyl-nicotinamide] | 300 to 1000 nM | > 50%
21 | < 300 nM | CC(C)c1cc(Nc2cccc(C#N)c2)ncc1C(=O)NCc1ccc(F)cc1 [Example 19, 6-(3-Cyano-phenylamino)-N-(4-fluoro-benzyl)-4-isopropyl-nicotinamide] | – | –
22 | < 300 nM | CC(C)c1cc(Nc2ccc(Br)c(F)c2)ncc1C(=O)NCc1ccc(F)cc1 [Example 24, 6-(4-Bromo-3-fluoro-fluoro-benzyl)-4-phenylamino)-N-(4-isopropyl-nicotinamide] | – | –
23 | – | COc1ccc(CNC(=O)c2cnc(Nc3cccc(Cl)c3)cc2C(C)C)cc1 [Example 6, 6-(3-Chloro-phenylamino)-4-isopropyl-N-(4-methoxy-benzyl)-nicotinamide] | 300 to 1000 nM | > 50%
24 | – | O=C(NCc1ccncc1)c1ccc(Nc2cccc(Cl)c2)nc1C(F)(F)F [Example 78, 6-(3-Chloro-phenylamino)-N-(pyridin-4-ylmethyl)-2-trifluoromethyl-nicotinamide] | < 300 nM | > 50%
25 | – | O=C(NCc1ccnc(F)c1)c1cnc(Nc2cccc(Cl)c2Cl)cc1C(F)(F)F [Example 50, N-(2-Fluoro-pyridin-4-ylmethyl)-6-(2,3-dichloro-phenylamino)-4-trifluoromethyl-nicotinamide] | < 300 nM | > 50%
26 | – | CC(C)c1cc(Nc2cccc(C(F)(F)F)c2)ncc1C(=O)NCc1ccc(F)cc1 [Example 14, N-(4-Fluoro-benzyl)-4-isopropyl-6-(3-trifluoromethyl-phenylamino)-nicotinamide] | 300 to 1000 nM | > 50%
27 | – | Cc1ccc(Cl)cc1Nc1cc(C(F)(F)F)c(C(=O)NCc2ccncc2)cn1 [Example 57, N-(Pyridin-4-ylmethyl)-6-(2-methyl-5-chloro-phenylamino)-4-trifluoromethyl-nicotinamide] | < 300 nM | > 50%
28 | – | CC(C)c1cc(Nc2ccc(Cl)cc2Cl)ncc1C(=O)NCc1ccc(F)cc1 [Example 22, 6-(2,4-Dichloro-phenylamino)-N-(4-fluoro-benzyl)-4-isopropyl-nicotinamide] | < 300 nM | > 50%
29 | – | Cc1cc(Cl)ccc1Nc1cc(C(F)(F)F)c(C(=O)NCc2ccncc2)cn1 [Example 58, N-(Pyridin-4-ylmethyl)-6-(2-methyl-4-chloro-phenylamino)-4-trifluoromethyl-nicotinamide] | < 300 nM | > 50%
